Results published in article PMC7527510, “Identification of the dog orthologue of human MAS-related G protein coupled receptor X2 (MRGPRX2) essential for drug-induced pseudo-allergic reactions” (Scientific Reports, 2020).
“And” between values parts separate entries of the source, which are not always exact repeats. Equal entries are not always repeated. “Also recorded” adds a separate entry of the source. Where two headings read alike, the source gives them in different places.

Assays:
[1] = test system: non-transfected HEK293 cells; assay: Intracellular Ca2+ levels in non-transfected HEK293 cells (negative control cells); assay type: cell-based, human; details: 1,000 μg/mL; data excluded from the analysis
Description: HEK293 cells obtained from the JCRB Cell Bank (Osaka, Japan) were transfected transiently with dog MRGPRD, MRGPRF, MRGPRG, or MRGPRX2 or human MRGPRX2. Lipofectamine 2000 Reagent (Thermo Fisher Scientific Inc.) and pcDNA3.1(+) vector containing each gene were diluted and mixed using Opti-MEM I Reduced Serum Medium (Thermo Fisher Scientific Inc.) to prepare lipid-DNA complexes (final concentrations: lipofectamine 2.5 μL/mL and DNA 2,500 ng/mL). HEK293 cells were detached using TrypLE™ Express (Thermo Fisher Scientific Inc.) and prepared to 7 × 10^5 cells/mL with the lipid-DNA complex. […]
Test articles were dissolved in HBSS (pH 7.4, Thermo Fisher Scientific Inc., Waltham, MA, USA) supplemented with 20 mM HEPES (Sigma-Aldrich Co. LLC.) and 0.05 vol% bovine serum albumin (BSA, Sigma-Aldrich Co. LLC.). […] Intracellular Ca^2+ levels were analysed using Calcium Kit II-iCellux (Dojindo Molecular Technologies, Inc., Kumamoto, Japan), according to the manufacturer's instructions. […] Changes in fluorescence intensities before and after addition of the test articles were measured over time using FLIPR Tetra (Molecular Devices, LLC., Sunnyvale, CA, USA) with excitation at 470–495 nm and emission at 515–575 nm. […] Samples were measured in duplicate or quadruplicate. […]

human MRGPRX2 = biological target: T1, human MRGPRX2 (Homo sapiens, UniProt Q96LB1); assay: Intracellular Ca2+ mobilisation assay in HEK293 cells transiently transfected with human MRGPRX2; assay type: cell-based; details: for Activation of human MRGPRX2 (increase in intracellular Ca2+): HEK293 cells transfected with human MRGPRX2, fluoroquinolones up to 1000 μg/mL; for EC50: human MRGPRX2-expressing HEK293 cells, mean ± SD of three independent experiments, read-out: EC50 on changes in intracellular Ca2+ levels, Human MRGPRX2 (converted)
T1 construct: expressed in transfected cells; host or cells: HEK293 (JCRB Cell Bank), transient, pcDNA3.1(+) vector
T1 sequence (Q96LB1 1-330): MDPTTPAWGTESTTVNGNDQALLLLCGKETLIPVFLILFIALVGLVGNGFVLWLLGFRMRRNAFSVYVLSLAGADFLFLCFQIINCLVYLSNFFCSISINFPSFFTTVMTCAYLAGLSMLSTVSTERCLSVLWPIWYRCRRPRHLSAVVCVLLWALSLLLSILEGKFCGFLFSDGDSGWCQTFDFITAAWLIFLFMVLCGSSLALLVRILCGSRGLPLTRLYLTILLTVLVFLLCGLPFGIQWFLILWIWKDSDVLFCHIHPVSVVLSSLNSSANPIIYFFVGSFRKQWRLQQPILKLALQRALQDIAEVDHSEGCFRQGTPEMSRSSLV
Description: (§1) HEK293 cells obtained from the JCRB Cell Bank (Osaka, Japan) were transfected transiently with dog MRGPRD, MRGPRF, MRGPRG, or MRGPRX2 or human MRGPRX2. Lipofectamine 2000 Reagent (Thermo Fisher Scientific Inc.) and pcDNA3.1(+) vector containing each gene were diluted and mixed using Opti-MEM I Reduced Serum Medium (Thermo Fisher Scientific Inc.) to prepare lipid-DNA complexes (final concentrations: lipofectamine 2.5 μL/mL and DNA 2,500 ng/mL). HEK293 cells were detached using TrypLE™ Express (Thermo Fisher Scientific Inc.) and prepared to 7 × 10^5 cells/mL with the lipid-DNA complex. Thereafter, 25 μL cells (1.75 × 10^4 cells/well) were seeded per well in 384-well flat-bottomed plates (Corning Incorporated, Corning, NY, USA) and incubated overnight at 37 °C under 5% CO2 conditions. Cells treated with plasmid-free lipid solution were used as negative control (non-transfected cells).
Test articles were dissolved in HBSS (pH 7.4, Thermo Fisher Scientific Inc., Waltham, MA, USA) supplemented with 20 mM HEPES (Sigma-Aldrich Co. LLC.) and 0.05 vol% bovine serum albumin (BSA, Sigma-Aldrich Co. LLC.). […] Intracellular Ca^2+ levels were analysed using Calcium Kit II-iCellux (Dojindo Molecular Technologies, Inc., Kumamoto, Japan), according to the manufacturer's instructions. HEK293 cells (1.75 × 10^4 cells/well) were loaded with 1.25 mM probenecid and calcium probe for 45 min at 25 °C. Changes in fluorescence intensities before and after addition of the test articles were measured over time using FLIPR Tetra (Molecular Devices, LLC., Sunnyvale, CA, USA) with excitation at 470–495 nm and emission at 515–575 nm. The test articles were added at 10 s after beginning the measurements. Samples were measured in duplicate or quadruplicate. The data were analysed using ScreenWorks (Molecular Devices, LLC. Version 3.2.0.14) to determine the difference between maximal and minimal fluorescence intensity (max–min).
(§2) Data represent the mean ± SD of three animals for distribution study or three independent assays for Ca^2+ mobilisation. EC50 of each test article used in the Ca^2+ mobilisation assay was calculated using the sigmoid Emax model. These analyses were performed by using the SAS System Release 8.2 software (SAS Institute Inc., Cary, NC, USA).

dog MRGPRX2 = dog MRGPRX2 (Canis lupus familiaris, UniProt A0A4Y5P885); assay: Intracellular Ca2+ mobilisation assay in HEK293 cells transiently transfected with dog MRGPRX2; assay type: cell-based; details: for Difference in EC50 values between dog MRGPRX2 and human MRGPRX2: EC50 lower in dog MRGPRX2-expressing cells than in human MRGPRX2-expressing cells; for EC50: mean ± SD of three independent experiments; for Activation of dog MRGPRX2 (increase in intracellular Ca2+): HEK293 cells transfected with dog MRGPRX2, fluoroquinolones up to 1000 μg/mL
Sequence of dog MRGPRX2 (A0A4Y5P885 entry or part of it): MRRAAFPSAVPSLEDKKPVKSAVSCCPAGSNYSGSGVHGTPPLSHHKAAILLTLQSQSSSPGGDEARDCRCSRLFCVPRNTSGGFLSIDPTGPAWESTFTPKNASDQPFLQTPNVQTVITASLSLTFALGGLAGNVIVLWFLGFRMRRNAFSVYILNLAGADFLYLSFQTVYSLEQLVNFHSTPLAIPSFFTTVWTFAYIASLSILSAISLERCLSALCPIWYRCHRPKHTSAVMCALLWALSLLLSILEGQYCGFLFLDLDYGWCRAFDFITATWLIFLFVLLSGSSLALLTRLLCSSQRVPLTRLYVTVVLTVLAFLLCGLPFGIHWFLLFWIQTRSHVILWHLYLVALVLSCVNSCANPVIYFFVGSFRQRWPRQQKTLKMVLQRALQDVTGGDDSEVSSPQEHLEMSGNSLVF
Description: as §1
Test articles were dissolved in HBSS (pH 7.4, Thermo Fisher Scientific Inc., Waltham, MA, USA) supplemented with 20 mM HEPES (Sigma-Aldrich Co. LLC.) and 0.05 vol% bovine serum albumin (BSA, Sigma-Aldrich Co. LLC.). The highest concentration of the fluoroquinolones was set at 1000 μg/mL based on previous reports at which the test substances induced marked intracellular Ca^2+ mobilisation in human MRGPRX2-expressing HEK293 cells[11] or caused histamine release in rat or human mast cells[16],[25],[36]. Intracellular Ca^2+ levels were analysed using Calcium Kit II-iCellux (Dojindo Molecular Technologies, Inc., Kumamoto, Japan), according to the manufacturer's instructions. HEK293 cells (1.75 × 10^4 cells/well) were loaded with 1.25 mM probenecid and calcium probe for 45 min at 25 °C. Changes in fluorescence intensities before and after addition of the test articles were measured over time using FLIPR Tetra (Molecular Devices, LLC., Sunnyvale, CA, USA) with excitation at 470–495 nm and emission at 515–575 nm. The test articles were added at 10 s after beginning the measurements. Samples were measured in duplicate or quadruplicate. The data were analysed using ScreenWorks (Molecular Devices, LLC. Version 3.2.0.14) to determine the difference between maximal and minimal fluorescence intensity (max–min).
as §2

[2] = test system: dispersed canine skin mast cells; parameters: method as in PMID 10864147; details: cited from earlier work
[3] = parameters: method as in PMID 9635500; details: cited from earlier work
mouse Mrgprb2 = test system: mouse Mrgprb2; parameters: method as in PMID 25517090; details: cited from earlier work
[4] = EC50 on changes in intracellular Ca2+ levels, Dog MRGPRX2, dog MRGPRX2-expressing HEK293 cells

Molecule | Nonspecific increase in intracellular Ca2+ levels in non-transfected cells [1] | Activation of human MRGPRX2 (increase in intracellular Ca2+) (human MRGPRX2) | Difference in EC50 values between dog MRGPRX2 and human MRGPRX2 (dog MRGPRX2) | EC50 (dog MRGPRX2; [4]) | Activation of dog MRGPRX2 (increase in intracellular Ca2+) (dog MRGPRX2) | EC50 (human MRGPRX2) [µM] | EC50 (dog MRGPRX2; dog MRGPRX2-expressing HEK293 cells, read-out: EC50 on changes in intracellular Ca2+ levels, Dog MRGPRX2 (converted)) [µM] | Concentration inducing histamine release from dispersed canine skin mast cells [2] [µg/mL] | Histamine release in dogs [3] | EC50 in mouse Mrgprb2-expressing cells compared to human MRGPRX2-expressing cells (mouse Mrgprb2; higher in mouse) [fold] | EC50 (mouse Mrgprb2; read-out: EC50 in mouse Mrgprb2-expressing cells) [µM]
O=C(O)c1cn(C2CC2)c2cc(N3CCNCC3)c(F)cc2c1=O [CPFX, ciprofloxacin] | induced nonspecific increase | concentration-dependent | ca. sevenfold | ~45.3 µM and 43.8 µM | responded |  |  |  |  |  | 
COc1c(N2CCNC(C)C2)c(F)cc2c(=O)c(C(=O)O)cn(C3CC3)c12 (centres unmarked) [GFLX, gatifloxacin] |  | concentration-dependent |  |  | responded | 529 | 210 |  |  |  | 
C[C@H]1COc2c(N3CCN(C)CC3)c(F)cc3c(=O)c(C(=O)O)cn1c23 [LVFX, levofloxacin] |  | concentration-dependent | ca. sevenfold | ~166 µM and 163 µM | responded | 1060 |  | ≥ 30 |  |  | 
C[C@H]1COc2c(C3(N)CC3)c(F)cc3c(=O)c(C(=O)O)cn1c23 [PZFX, pazufloxacin] |  | did not activate |  |  | did not activate |  |  |  | does not induce histamine release; also recorded: does not cause histamine release |  | 
substance P |  |  |  |  |  |  |  |  |  | 360 | 54
